Patent US20260085283A1, “STEM CELL-DERIVED GASTRULOID MODEL, METHOD FOR CONSTRUCTING SAME, AND USE” (Innovation Center of Suzhou Nanjing Medical University, priority 2022, published 2026)

Tested on: gastruloid model induced from human induced pluripotent stem cells DYR0100
Experiment: Thalidomide dosing of the in vitro gastruloid induction model (early embryonic teratogenesis model test)
[1] = day 7, dosed group (5 μM and 10 μM) compared with the control group
[2] = day 7, with the increase of dosed concentration (5 μM, 10 μM), significant statistical difference vs blank control and dimethyl sulfoxide control
[3] = day 7 samples, dosed group (5 μM and 10 μM) compared with the control group

Protocol: Two gradients of 5 μM and 10 μM were selected, and a blank control group and a dimethyl sulfoxide group (with thalidomide solvent) were added for testing.
When human induced pluripotent stem cells DYR0100 grew to 80-90% confluence, TrypLE Select was used to digest the cells into single cells, and the cells were resuspended in PBS to obtain a cell suspension 1; cell suspension 1 containing 9.0×10^4 cells was taken, 2 mL of the G1ER culture medium containing Y-27632 was added to resuspend the cells, and then 5 μM, 10 μM of 1% % thalidomide, dimethyl sulfoxide solution and a blank control group were added respectively, a total of 4 groups, to obtain a cell suspension 2; the cell suspension 2 was inoculated into a well of an Agreewell 400™ culture dish coated with the anti-adhesion solution (Anti-adhesion rinsing Solution) in advance. After centrifugation at 800 rpm for 2 minutes using a horizontal centrifuge, the cell amount per microwell was 50-75 cells (each well of the Agreewell 400™ culture dish has 1200 microwells, that is, the cell amount in each microwell was 9.0×10^4/1200=75 cells).
On day 2 of the culture, half of the culture medium was replaced with the G1ER culture medium, and 5 μM and 10 μM of 1% % thalidomide, dimethyl sulfoxide solution and a blank control were added respectively. Half of the culture medium was replaced every day until day 3 of the culture.
When the first stage of induction was completed, samples were taken from the four groups, and recorded with white light, then 4% paraformaldehyde was used for fixation for 30 minutes, and relevant immunofluorescence staining was performed for statistical verification.
On day 3 of the culture, 1.75 mL of the first-stage GIER culture medium was discarded, and the second-stage G2EE culture medium was added slowly along the wall, 5 μM and 10 μM of 1% thalidomide, dimethyl sulfoxide solution and a blank control were added respectively, to prevent the formed gastruloids from floating up from the microwells and then fusing.
On day 4 of the culture, 1.75 mL of the second-stage G2EE culture medium was discarded, and the third-stage aG2EE culture medium was added slowly along the wall, and 5 μM and 10 μM of 1% % thalidomide, dimethyl sulfoxide solution and a blank control were added respectively, to prevent the formed gastruloids from floating up from the microwells and then fusing.
On day 5 of the culture, 1.75 mL of the third-stage aG2EE culture medium was discarded, and the fourth-stage bG2EE culture medium was added slowly along the wall, and 5 μM and 10 μM of 1% % thalidomide, dimethyl sulfoxide solution and a blank control were added respectively, to prevent the formed gastruloids from floating up from the microwells and then fusing. After 24 hours, the culture medium was continuously replaced by 1.75 mL (the bG2EE culture medium) and cultured until day 7.
When the four-stage induction was completed, samples were taken from the four groups, and recorded the white light, then 4% paraformaldehyde was used to fix for 30 minutes, and relevant cell nucleus staining was performed for statistical verification.

## O=C1CCC(N2C(=O)c3ccccc3C2=O)C(=O)N1 (stereo not drawn) [Thalidomide]
[1]
  formation of amniotic cavity and yolk sac (DAPI staining): could not be formed
  internal structure of the gastruloids (DAPI staining of cell nucleus): relatively disordered
[2]
  cell amount of the single gastruloid: decreased
  volume of the single gastruloid: decreased
[3]
  internal cavity structure of the gastruloids (white light results): absent
  volume of the gastruloids (white light results): reduced volume
